Measured values: patent publication US12383535B2, “Hydrogen peroxide-responsive KEAP1-NRF2 ppi inhibitor prodrug, and preparation method therefor” (CHINA PHARMACEUTICAL UNIVERSITY, priority 2019, dated 2025)

Legend:
[1] = Stability in artificial gastric and intestinal fluids (SGF, SIF); format: physicochemical; conditions: after 8 h
Description: (4) Stability in artificial gastric and intestinal fluids. Artificial gastric and intestinal fluids were purchased from commercial suppliers. Samples of prodrug (20 μM) were incubated in triplicate with artificial gastric or intestinal fluids at 37° C. for different periods of time. The enzyme protein was precipitated by adding methanol, and the samples were vortexed and then centrifuged at 5000 rpm for 5 min. The supernatants of the samples were analyzed by HPLC and the peak areas were recorded. All chromatographic conditions were as described above.

C57BL/6 mice = experiment: LPS-induced mouse acute inflammation model; format: in vivo; conditions: LPS 300 μg/kg mice
Description: Female C57BL/6 mice (6-8 weeks old, 18-20 g in weight) were acclimatized with drinking water for 2 days, and were randomized to eight groups: (A) control group (n=3); (B) LPS (Sigma-Aldrich, St. Louis, No. L4130) model group (300 μg/kg/day, n=8); (C) LPS (300 μg/kg/day)+pro2 low-dose (10 mg/kg/day) group (n=8); (D) LPS (300 μg/kg/day)+pro2 high-dose (40 mg/kg/day) group (n=8); (E) LPS (300 μg/kg/day)+active parent compound 2 high-dose (40 mg/kg/day) group (n=8); (F) LPS (300 μg/kg/day)+dexamethasone low-dose (10 mg/kg/day) group (n=8); (G) pro2 high-dose (40 mg/kg/day) group (n=3); and (H) active parent compound 2 high-dose (40 mg/kg/day) group (n=3). Animals of groups A, G and H were given IP injections of 500 μL of normal saline each time (on days −3, −2 and −1). All LPS-stimulated mice were IP-injected with 500 μL of LPS (on days −3, −2 and −1), and 4 h after the injection the mice were given corresponding compound treatment (on days −3, −2 and −1). Animals were sacrificed (day 0) 24 h after the last dose of the compound to collect the serum, and the levels of cytokine IL-1β, IL-6, TNF-α and IFN-γ in the serum were determined by ELISA.

[2] = system: IL-1β and IL-6 mRNA in RAW264.7 cells; experiment: Real-time quantitative PCR of IL-1β and IL-6; format: cell-based, mouse; conditions: 20 ng/mL LPS 8 h
Stability in plasma = format: in vitro ADME
Description: (2) Stability in plasma. Samples (20 μM) of the prodrug pro2 were co-incubated in triplicate with mouse plasma at 37° C. at different time periods. Methanol was added to precipitate the proteins, and the samples were vortexed and then centrifuged at 12,000 rpm for 5 min. The supernatants were analyzed by HPLC and the peak areas were recorded.

[3] = Stability in liver microsomes (rat); format: in vitro ADME
Description: (3) Stability in microsomes. Isolated liver microsomes (from CD-1 male rats and human males) were used to evaluate the stability of the compound in microsomes in vitro. Ketanserin was used as a reference compound. A liver microsome solution (20 mg/mL) was added to a microcentrifuge tube containing PBS at 37° C. and the mixture was shaken for 10 min prior to assay. Then a DMSO solution (0.5 mM) containing the test compound was added. At 0 min, pre-cooled acetonitrile was added followed by an NADPH stock solution (6 mM). The plates were pre-incubated at 37° C. for 5 min. The timer started upon the addition of the NADPH stock solution (6 mM) to the plates. At 5 min, 15 min, 30 min and 45 min, pre-cooled acetonitrile was added to the wells of the respective plates to stop the reactions. After the reaction was quenched, the plates were shaken on a shaker for 10 min and then centrifuged at 5000 rpm for 15 min. The supernatant from each well was transferred to a 96-well sample plate containing ultrapure water for LC-MS/MS analysis.

[4] = In vivo pharmacokinetic study; design: species or system SD rats; conditions: rat
Description: Six male SD rats weighing about 260 g were used, with 3 rats for PO study and the other 3 rats for IV study. The test compound was dissolved in normal saline with a cosolvent to prepare a solution before the study. For the PO study, animals were administered orally (10 mg/kg). […] Blood was sampled at 0.0833, 0.25, 0.5, 1, 2, 4, 6, 8, 24 h in groups IV and PO. The blood samples were preserved on ice and then centrifuged at 2000 rpm and 4° C. for 10 min for separating plasma. The plasma samples were transferred and stored at −80° C. before analysis by LC-MS/MS.

RAW264.7 cells = experiment: IL-1β, IL-6, TNF-α and NO assays in cell culture supernatant; format: cell-based, mouse
Description: IL-1β (IL-1β (m) ELISA kit, EK0394, Boster), IL-18 (IL-18 (m) ELISA kit, EMC011, NeoBioscience), IL-6 (IL-6 (m) ELISA kit EK0411, Boster), TNF-α (TNF-α (m) ELISA kit, EK0527, Boster) and NO (nitrate/nitrite assay kit, S0023, Beyotime, China) were tested using commercially available kits according to the manufacturer's instructions.
Then, several inflammatory mediators closely related to ROS, including IL-1β, IL-6, TNF-α and NO, were further evaluated.

[5] = pH stability in PBS buffers; format: physicochemical; conditions: PBS solutions, pH 4-10
Description: (1) pH stability. PBS buffers with different pH values (pH 4-10) were prepared from a 0.1 M HCl solution and a 0.1 M NaOH solution. The prodrug pro2 (20 μM) was incubated in triplicate together with the PBS buffers of different pH at 37° C. After 24 h of incubation, the solutions were filtered and injected for direct sample analysis by HPLC, and the peak areas were recorded to calculate the percentage of compound.

Q: Which results are given for `COc1ccc(S(=O)(=O)Nc2ccc(N(CC(=O)N3CCSC3=O)S(=O)(=O)c3ccc(OC)cc3)c3ccccc23)cc1` [pro2]?
A: remaining in simulated gastric fluid (SGF) ([1]; SGF): > 50%; remaining in simulated intestinal fluid (SIF) ([1]; SIF): > 50%; anti-inflammatory effect (serum IL-1β, IL-6, TNF-α, IFN-γ) (C57BL/6 mice; compound 10 mg/kg): comparable therapeutic effect to dexamethasone; anti-inflammatory effect (serum IL-1β, IL-6, TNF-α, IFN-γ) (C57BL/6 mice; compound high dose 40 mg/kg, oral): stronger effect; mRNA transcription of IL-1β and IL-6 [2]: significantly inhibit the induction by pro-inflammatory genes; stability in rat plasma (Stability in plasma): very stable; stability in co-incubation with rat liver microsomes [3]: very stable; AUC0-t ([4]; I.V. 2 mg/kg): 1842 ± 363 ng·h/mL; AUC0-∞ ([4]; I.V. 2 mg/kg): 1854 ± 366 ng·h/mL; Cl_F ([4]; I.V. 2 mg/kg): 18.5 ± 3.9 mL/min/kg; MRT ([4]; I.V. 2 mg/kg): 1.25 ± 0.30 h; T1/2 ([4]; I.V. 2 mg/kg): 4.41 ± 3.01 h; Vz_F ([4]; I.V. 2 mg/kg): 6.44 ± 4.09 L/kg; AUC0-t ([4]; P.O. 10 mg/kg): 6203 ± 248 ng·h/mL; AUC0-∞ ([4]; P.O. 10 mg/kg): 6315 ± 273 ng·h/mL; Cl_F ([4]; P.O. 10 mg/kg): 26.4 ± 1.14 mL/min/kg; Cmax ([4]; P.O. 10 mg/kg): 2753 ± 15.3 ng/mL; MRT ([4]; P.O. 10 mg/kg): 1.82 ± 0.35 h; T1/2 ([4]; P.O. 10 mg/kg): 2.09 ± 0.93 h; Tmax ([4]; P.O. 10 mg/kg): 0.67 ± 0.29 h; Vz_F ([4]; P.O. 10 mg/kg): 4.79 ± 2.17 L/kg; bioavailability ([4]; oral): 68.1%; production of IL-1β, IL-6 and TNF-α in supernatant (RAW264.7 cells; LPS-treated RAW264.7 cell culture): significant advantages in inhibiting production; EC50 (RAW264.7 cells; Mus musculus, LPS-stimulated RAW264.7 cells, read-out: EC50 for reduction of extracellular NO concentration): 120 nM; hydrolytic stability in PBS [5]: hydrolytically stable
